Here are results for eight compounds from the kinase profiling compilation of Christmann-Franck et al. (2016).

Some targets named below: STK16 (human) (UniProt O75716); IRAK1 (human) (UniProt P51617); MYLK (human) (UniProt Q15746); PTK6 (human) (UniProt Q13882); TEK (human) (UniProt Q02763); STK33 (human) (UniProt Q9BYT3); ABL1 (human) (UniProt P00519); PRKCG (human) (UniProt P05129); TLK1 (human) (UniProt Q9UKI8); ZAP70 (human) (UniProt P43403); TESK1 (human) (UniProt Q15569); TTBK1 (human) (UniProt Q5TCY1); EIF2AK3 (human) (UniProt Q9NZJ5); TSSK1B (human) (UniProt Q9BXA7).

Common to all, as to test: radiometric filter-binding kinase assay
Test [1] relates to OXSR1 (human), O95747 [T185E].
Sequence of OXSR1 (human), O95747 [T185E] (O95747 whole entry T185E, looked up): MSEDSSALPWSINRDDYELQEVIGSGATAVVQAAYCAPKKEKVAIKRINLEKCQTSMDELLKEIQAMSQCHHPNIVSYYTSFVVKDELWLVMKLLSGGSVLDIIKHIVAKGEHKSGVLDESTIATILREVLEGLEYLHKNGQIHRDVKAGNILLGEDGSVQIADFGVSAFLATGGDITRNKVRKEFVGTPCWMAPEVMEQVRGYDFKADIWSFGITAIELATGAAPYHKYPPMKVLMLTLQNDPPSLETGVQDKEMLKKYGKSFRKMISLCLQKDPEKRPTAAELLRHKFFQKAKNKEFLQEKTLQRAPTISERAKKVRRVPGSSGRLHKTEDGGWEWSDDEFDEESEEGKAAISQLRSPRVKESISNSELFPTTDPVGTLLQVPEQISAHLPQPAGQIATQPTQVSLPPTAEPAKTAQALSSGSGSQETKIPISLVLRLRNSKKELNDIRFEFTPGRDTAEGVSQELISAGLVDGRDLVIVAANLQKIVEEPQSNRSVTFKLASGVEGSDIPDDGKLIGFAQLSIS

SMILES strings stand for the structures.

Sequence of ZAP70 (human) (P43403 whole entry, looked up): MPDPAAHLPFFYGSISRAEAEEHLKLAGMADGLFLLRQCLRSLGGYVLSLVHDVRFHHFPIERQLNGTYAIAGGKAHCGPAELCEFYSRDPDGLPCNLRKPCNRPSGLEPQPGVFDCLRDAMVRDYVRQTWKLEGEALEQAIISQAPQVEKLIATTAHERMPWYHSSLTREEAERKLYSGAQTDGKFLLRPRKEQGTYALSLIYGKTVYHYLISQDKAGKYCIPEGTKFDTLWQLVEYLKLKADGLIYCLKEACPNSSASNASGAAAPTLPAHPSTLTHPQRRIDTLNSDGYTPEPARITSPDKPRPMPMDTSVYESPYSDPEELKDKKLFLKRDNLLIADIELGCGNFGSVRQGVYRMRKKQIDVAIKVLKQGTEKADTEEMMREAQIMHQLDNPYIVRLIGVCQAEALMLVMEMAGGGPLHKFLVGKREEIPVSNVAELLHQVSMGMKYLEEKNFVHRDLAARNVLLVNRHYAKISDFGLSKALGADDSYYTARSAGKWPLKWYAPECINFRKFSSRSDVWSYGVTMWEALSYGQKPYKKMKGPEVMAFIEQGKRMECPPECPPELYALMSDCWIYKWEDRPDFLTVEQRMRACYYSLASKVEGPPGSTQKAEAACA
Sequence of STK33 (human) (Q9BYT3 whole entry, looked up): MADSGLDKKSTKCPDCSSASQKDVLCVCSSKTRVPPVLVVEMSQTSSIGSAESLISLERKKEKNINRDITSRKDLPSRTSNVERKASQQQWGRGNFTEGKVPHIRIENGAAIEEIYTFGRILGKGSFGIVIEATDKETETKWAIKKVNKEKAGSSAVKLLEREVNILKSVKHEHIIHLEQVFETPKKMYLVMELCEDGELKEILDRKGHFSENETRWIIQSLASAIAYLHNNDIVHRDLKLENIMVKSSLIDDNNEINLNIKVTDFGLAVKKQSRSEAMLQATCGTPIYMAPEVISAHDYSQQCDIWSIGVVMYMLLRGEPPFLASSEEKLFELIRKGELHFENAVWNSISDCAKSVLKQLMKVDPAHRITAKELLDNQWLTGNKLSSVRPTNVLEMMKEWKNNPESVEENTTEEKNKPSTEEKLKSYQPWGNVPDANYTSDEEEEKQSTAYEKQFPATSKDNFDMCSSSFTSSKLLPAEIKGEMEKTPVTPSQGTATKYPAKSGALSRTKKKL
Sequence of TLK1 (human) (Q9UKI8 whole entry, looked up): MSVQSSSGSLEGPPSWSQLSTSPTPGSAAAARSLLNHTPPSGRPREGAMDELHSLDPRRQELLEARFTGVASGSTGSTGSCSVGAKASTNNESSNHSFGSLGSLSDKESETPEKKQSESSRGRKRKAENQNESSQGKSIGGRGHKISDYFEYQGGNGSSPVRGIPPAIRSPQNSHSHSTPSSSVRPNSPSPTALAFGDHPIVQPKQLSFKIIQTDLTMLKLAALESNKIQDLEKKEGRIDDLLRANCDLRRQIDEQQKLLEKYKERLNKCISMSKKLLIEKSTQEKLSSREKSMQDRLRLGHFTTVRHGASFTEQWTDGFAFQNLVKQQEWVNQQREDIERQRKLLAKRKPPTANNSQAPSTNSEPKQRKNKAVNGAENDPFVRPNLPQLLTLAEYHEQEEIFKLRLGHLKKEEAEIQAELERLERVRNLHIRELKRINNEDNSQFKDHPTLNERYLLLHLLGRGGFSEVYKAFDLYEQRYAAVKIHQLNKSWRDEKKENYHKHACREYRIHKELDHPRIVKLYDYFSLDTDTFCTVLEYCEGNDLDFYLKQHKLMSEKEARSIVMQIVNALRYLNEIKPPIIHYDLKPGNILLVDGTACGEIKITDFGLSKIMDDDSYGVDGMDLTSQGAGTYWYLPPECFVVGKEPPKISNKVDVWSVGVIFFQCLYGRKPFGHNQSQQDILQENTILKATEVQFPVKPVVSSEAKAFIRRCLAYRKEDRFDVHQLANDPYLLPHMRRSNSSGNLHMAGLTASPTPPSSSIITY
Sequence of TESK1 (human) (Q15569 whole entry, looked up): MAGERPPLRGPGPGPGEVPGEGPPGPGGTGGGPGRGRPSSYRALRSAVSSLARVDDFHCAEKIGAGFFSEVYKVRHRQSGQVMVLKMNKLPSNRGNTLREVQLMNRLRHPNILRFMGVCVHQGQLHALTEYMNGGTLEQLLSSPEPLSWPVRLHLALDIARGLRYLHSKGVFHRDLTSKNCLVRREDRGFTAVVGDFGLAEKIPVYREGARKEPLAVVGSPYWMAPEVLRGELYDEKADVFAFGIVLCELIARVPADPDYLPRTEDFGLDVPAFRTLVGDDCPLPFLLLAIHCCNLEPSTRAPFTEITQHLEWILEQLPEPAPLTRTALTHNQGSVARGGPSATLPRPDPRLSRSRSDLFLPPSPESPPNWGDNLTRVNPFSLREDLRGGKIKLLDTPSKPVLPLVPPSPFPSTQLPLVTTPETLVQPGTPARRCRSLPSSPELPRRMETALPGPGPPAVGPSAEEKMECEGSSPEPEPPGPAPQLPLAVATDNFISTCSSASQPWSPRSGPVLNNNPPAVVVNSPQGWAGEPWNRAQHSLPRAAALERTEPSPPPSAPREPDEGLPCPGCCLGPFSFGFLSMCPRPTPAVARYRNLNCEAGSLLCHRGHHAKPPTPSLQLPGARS
Sequence of TTBK1 (human) (Q5TCY1 whole entry, looked up): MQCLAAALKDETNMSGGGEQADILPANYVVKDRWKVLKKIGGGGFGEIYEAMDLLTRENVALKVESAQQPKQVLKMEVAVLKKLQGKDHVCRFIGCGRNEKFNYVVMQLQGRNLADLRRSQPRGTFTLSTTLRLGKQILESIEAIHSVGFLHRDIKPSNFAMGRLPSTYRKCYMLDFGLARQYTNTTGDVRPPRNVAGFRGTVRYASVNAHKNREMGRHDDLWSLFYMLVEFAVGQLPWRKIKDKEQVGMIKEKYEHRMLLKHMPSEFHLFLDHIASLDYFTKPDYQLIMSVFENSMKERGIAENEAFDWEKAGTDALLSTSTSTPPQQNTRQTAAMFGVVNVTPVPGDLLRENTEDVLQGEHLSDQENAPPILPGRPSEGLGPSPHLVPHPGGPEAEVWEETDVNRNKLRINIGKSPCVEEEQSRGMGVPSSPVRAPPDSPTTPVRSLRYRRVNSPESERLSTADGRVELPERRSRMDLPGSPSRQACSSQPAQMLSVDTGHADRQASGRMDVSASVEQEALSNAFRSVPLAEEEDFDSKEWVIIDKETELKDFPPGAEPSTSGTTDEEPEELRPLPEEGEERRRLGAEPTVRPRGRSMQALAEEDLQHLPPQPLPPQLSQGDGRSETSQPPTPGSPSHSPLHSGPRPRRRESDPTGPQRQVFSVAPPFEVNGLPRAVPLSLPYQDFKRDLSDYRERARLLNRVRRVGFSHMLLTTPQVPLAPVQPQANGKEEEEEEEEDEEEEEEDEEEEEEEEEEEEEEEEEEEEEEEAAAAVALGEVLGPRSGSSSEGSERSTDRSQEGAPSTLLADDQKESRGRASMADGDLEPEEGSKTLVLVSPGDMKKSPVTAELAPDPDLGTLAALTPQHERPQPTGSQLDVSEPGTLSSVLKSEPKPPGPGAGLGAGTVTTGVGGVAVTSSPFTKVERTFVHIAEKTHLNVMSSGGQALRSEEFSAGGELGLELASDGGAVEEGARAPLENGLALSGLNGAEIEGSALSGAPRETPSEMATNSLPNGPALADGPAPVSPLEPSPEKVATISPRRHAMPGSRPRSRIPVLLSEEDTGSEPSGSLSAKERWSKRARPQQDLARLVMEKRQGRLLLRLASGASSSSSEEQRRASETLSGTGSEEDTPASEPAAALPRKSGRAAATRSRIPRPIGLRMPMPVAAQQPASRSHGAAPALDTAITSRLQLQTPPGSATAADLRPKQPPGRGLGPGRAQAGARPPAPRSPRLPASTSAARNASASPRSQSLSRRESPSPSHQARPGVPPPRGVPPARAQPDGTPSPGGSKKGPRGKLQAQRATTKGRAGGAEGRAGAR

Turning to `O=C(NOCC(O)CO)c1ccc(F)c(F)c1Nc1ccc(I)cc1Cl` (stereo not drawn), the residual activity (as a rule, the signal under treatment as a percentage of the control signal) on STK16 (human) (compound 1.0 µM) came to 87%; at STK16 (human) (compound 10.0 µM), 86%; on IRAK1 (human) (compound 1.0 µM), 81%; at IRAK1 (human) (compound 10.0 µM) it was 79%; on MYLK (human) (compound 10.0 µM), 86%; on PTK6 (human) (compound 1.0 µM) it was 126%. The residual activity was determined as 110% on PTK6 (human) (compound 10.0 µM); 106% at TEK (human) (compound 1.0 µM); 87% on TEK (human) (compound 10.0 µM); 92% on STK33 (human) (compound 1.0 µM); 90% on STK33 (human) (compound 10.0 µM); 101% on ABL1 (human) (compound 1.0 µM). For the same compound, the residual activity came to 107% at ABL1 (human) (compound 10.0 µM); 110% on PRKCG (human) (compound 1.0 µM); 100% at PRKCG (human) (compound 10.0 µM); 95% on TLK1 (human) (compound 1.0 µM); 100% on TLK1 (human) (compound 10.0 µM); 87% in test [1] (compound 10.0 µM). Besides, the residual activity was 77% on ZAP70 (human) (compound 1.0 µM) and 98% on ZAP70 (human) (compound 10.0 µM).
As for `CC(C)(C#N)c1ccc(N2C(=O)OCc3cnc4ccc(-c5cnc6ccccc6c5)cc4c32)cc1`, the residual activity at STK16 (human) (compound 1.0 µM) was 87%; at STK16 (human) (compound 10.0 µM), 100%; at TESK1 (human) (compound 1.0 µM), 116%; at TESK1 (human) (compound 10.0 µM), 108%; on IRAK1 (human) (compound 1.0 µM), 79%; at IRAK1 (human) (compound 10.0 µM) it was 56%. The residual activity worked out at 87% on MYLK (human) (compound 1.0 µM); 100% on MYLK (human) (compound 10.0 µM); 96% at PTK6 (human) (compound 1.0 µM); 97% at PTK6 (human) (compound 10.0 µM); 93% on TEK (human) (compound 1.0 µM); 95% on TEK (human) (compound 10.0 µM). The residual activity on STK33 (human) (compound 10.0 µM) was found to be 98%; on ABL1 (human) (compound 1.0 µM) it was 93%; at ABL1 (human) (compound 10.0 µM), 103%; at PRKCG (human) (compound 1.0 µM), 111%; at PRKCG (human) (compound 10.0 µM), 99%; on TLK1 (human) (compound 1.0 µM), 84%. Also, the residual activity was 101% at TLK1 (human) (compound 10.0 µM); 102% in test [1] (compound 1.0 µM); 103% in test [1] (compound 10.0 µM); 110% at TTBK1 (human) (compound 1.0 µM); 100% on TTBK1 (human) (compound 10.0 µM); 101% at EIF2AK3 (human) (compound 1.0 µM). Moreover, the residual activity at EIF2AK3 (human) (compound 10.0 µM) was 97%; on TSSK1B (human) (compound 10.0 µM), 103%; at ZAP70 (human) (compound 1.0 µM), 75%; at ZAP70 (human) (compound 10.0 µM), 77%.
With `Cc1nc(-c2ccc(OCC(C)C)c(C#N)c2)sc1C(=O)O`, the residual activity was 46% on STK16 (human) (compound 1.0 µM); 47% at STK16 (human) (compound 10.0 µM); 106% on IRAK1 (human) (compound 1.0 µM); 102% at IRAK1 (human) (compound 10.0 µM); 101% at MYLK (human) (compound 1.0 µM); 79% at MYLK (human) (compound 10.0 µM). Besides, the residual activity on PTK6 (human) (compound 1.0 µM) was 99%; at TEK (human) (compound 1.0 µM) it was 78%; at TEK (human) (compound 10.0 µM) it was 67%; at STK33 (human) (compound 1.0 µM), 101%; at STK33 (human) (compound 10.0 µM), 89%; at ABL1 (human) (compound 1.0 µM) it was 96%. Besides, the residual activity at ABL1 (human) (compound 10.0 µM) stood at 89%; on PRKCG (human) (compound 1.0 µM), 81%; at PRKCG (human) (compound 10.0 µM), 85%; at TLK1 (human) (compound 1.0 µM), 86%; at TLK1 (human) (compound 10.0 µM) it was 94%; in [1] (compound 1.0 µM) it was 96%. Moreover, the residual activity in test [1] (compound 10.0 µM) was determined as 80%; at EIF2AK3 (human) (compound 1.0 µM), 94%; on EIF2AK3 (human) (compound 10.0 µM) it was 88%; at ZAP70 (human) (compound 1.0 µM), 104%.
As to `O=C(Nc1nc2cc(C(F)(F)F)cc(NC3CC3)n2n1)c1cccnc1`, the residual activity was 82% at STK16 (human) (compound 0.01 µM); 96% on STK16 (human) (compound 0.1 µM); 83% on STK16 (human) (compound 1.0 µM); 94% at IRAK1 (human) (compound 0.01 µM); 100% on IRAK1 (human) (compound 0.1 µM); 89% on IRAK1 (human) (compound 1.0 µM). The residual activity at MYLK (human) (compound 0.01 µM) worked out at 96%; on MYLK (human) (compound 0.1 µM) it was 93%; on MYLK (human) (compound 1.0 µM) it was 106%; at PTK6 (human) (compound 0.01 µM), 114%; on PTK6 (human) (compound 0.1 µM), 130%; on PTK6 (human) (compound 1.0 µM), 124%. The residual activity on TEK (human) (compound 0.01 µM) amounted to 94%; at TEK (human) (compound 0.1 µM), 103%; on TEK (human) (compound 1.0 µM), 69%; on STK33 (human) (compound 0.01 µM) it was 97%; at STK33 (human) (compound 0.1 µM), 106%; on STK33 (human) (compound 1.0 µM), 88%. The residual activity at ABL1 (human) (compound 0.01 µM) is 95%; on ABL1 (human) (compound 1.0 µM), 97%; at PRKCG (human) (compound 0.01 µM), 101%; at PRKCG (human) (compound 0.1 µM) it was 115%; at PRKCG (human) (compound 1.0 µM) it was 106%; on TLK1 (human) (compound 0.01 µM) it was 107%. In addition, the residual activity on TLK1 (human) (compound 0.1 µM) stood at 99%; on TLK1 (human) (compound 1.0 µM) it was 90%; in test [1] (compound 0.01 µM), 83%; in [1] (compound 0.1 µM), 114%; in test [1] (compound 1.0 µM) it was 92%; on EIF2AK3 (human) (compound 0.01 µM), 109%. Further, the residual activity on EIF2AK3 (human) (compound 0.1 µM) turned out to be 117%; on EIF2AK3 (human) (compound 1.0 µM), 104%; at ZAP70 (human) (compound 0.01 µM) it was 76%; on ZAP70 (human) (compound 0.1 µM) it was 77%; on ZAP70 (human) (compound 1.0 µM) it was 84%.
Regarding `CCOC(=O)c1ccc(N2NC(=O)/C(=C/c3ccc([N+](=O)[O-])o3)C2=O)cc1`, the residual activity at IRAK1 (human) (compound 10.0 µM) is 84%; at MYLK (human) (compound 10.0 µM) it was 109%; at PTK6 (human) (compound 10.0 µM) it was 79%; at TEK (human) (compound 10.0 µM) it was 128%; at STK33 (human) (compound 10.0 µM), 119%; on ABL1 (human) (compound 10.0 µM), 107%. The residual activity was 99% on PRKCG (human) (compound 10.0 µM); 108% at TLK1 (human) (compound 10.0 µM); 115% in [1] (compound 10.0 µM); 83% on EIF2AK3 (human) (compound 10.0 µM); 95% at ZAP70 (human) (compound 10.0 µM).
For `Cc1cc(N=Nc2cc(S(=O)(=O)O)c(C)cc2C)c(N)cc1O`, the residual activity is 111% on STK16 (human) (compound 100.0 µM); 73% at TESK1 (human) (compound 100.0 µM); 104% on IRAK1 (human) (compound 100.0 µM); 97% on MYLK (human) (compound 100.0 µM); 100% at PTK6 (human) (compound 100.0 µM); 103% at TEK (human) (compound 100.0 µM). Further, the residual activity at STK33 (human) (compound 100.0 µM) was 107%; on ABL1 (human) (compound 100.0 µM), 92%; at PRKCG (human) (compound 100.0 µM), 55%; at TLK1 (human) (compound 100.0 µM), 108%; in test [1] (compound 100.0 µM), 97%; at TTBK1 (human) (compound 100.0 µM), 94%. The residual activity was 94% at EIF2AK3 (human) (compound 100.0 µM), 107% on TSSK1B (human) (compound 100.0 µM) and 103% on ZAP70 (human) (compound 100.0 µM).
Turning to `O=C(NCCCNc1nc(Nc2cccc(CN3CCOCC3)c2)ncc1C1CC1)C1CCC1`, the residual activity on STK16 (human) (compound 1.0 µM) was found to be 104%; at IRAK1 (human) (compound 0.1 µM), 96%; at IRAK1 (human) (compound 1.0 µM), 79%; at MYLK (human) (compound 0.1 µM), 87%; on MYLK (human) (compound 1.0 µM), 103%; at PTK6 (human) (compound 0.1 µM), 96%. The residual activity at PTK6 (human) (compound 1.0 µM) was found to be 110%; at TEK (human) (compound 0.1 µM), 95%; at TEK (human) (compound 1.0 µM) it was 81%; at STK33 (human) (compound 0.1 µM), 80%; at STK33 (human) (compound 1.0 µM) it was 52%; on PRKCG (human) (compound 0.1 µM) it was 88%. The residual activity on PRKCG (human) (compound 1.0 µM) came out at 98%; at TLK1 (human) (compound 0.1 µM), 90%; at TLK1 (human) (compound 1.0 µM), 108%; in [1] (compound 0.1 µM) it was 83%; in test [1] (compound 1.0 µM), 94%; at EIF2AK3 (human) (compound 0.1 µM) it was 92%. The residual activity turned out to be 86% at EIF2AK3 (human) (compound 1.0 µM), 92% on ZAP70 (human) (compound 0.1 µM) and 94% on ZAP70 (human) (compound 1.0 µM).
As for `O=C(NOC[C@H](O)CO)c1ccc(F)c(F)c1Nc1ccc(I)cc1Cl`, the residual activity was 85% on STK16 (human) (compound 1.0 µM); 101% at STK16 (human) (compound 10.0 µM); 84% at IRAK1 (human) (compound 1.0 µM); 89% on IRAK1 (human) (compound 10.0 µM); 98% at MYLK (human) (compound 10.0 µM); 115% on PTK6 (human) (compound 1.0 µM). For the same compound, the residual activity on PTK6 (human) (compound 10.0 µM) is 121%; at TEK (human) (compound 10.0 µM), 96%; on STK33 (human) (compound 10.0 µM), 107%; on ABL1 (human) (compound 1.0 µM), 103%; on ABL1 (human) (compound 10.0 µM), 98%; on PRKCG (human) (compound 1.0 µM) it was 91%. Further, the residual activity on PRKCG (human) (compound 10.0 µM) came out at 99%; at TLK1 (human) (compound 1.0 µM), 96%; at TLK1 (human) (compound 10.0 µM), 104%; in test [1] (compound 1.0 µM) it was 95%; in test [1] (compound 10.0 µM), 93%; on EIF2AK3 (human) (compound 1.0 µM) it was 96%. Also, the values for the residual activity on EIF2AK3 (human) (compound 10.0 µM), on ZAP70 (human) (compound 1.0 µM) and on ZAP70 (human) (compound 10.0 µM) were 105%, 84% and 100%, respectively.
